Experimental data from article PMC2263054, “Functional evolution of the vitamin D and pregnane X receptors” (BMC Evolutionary Biology, 2007).
Entries after “also recorded” stand apart in the source; their conditions may differ. Where a name gives a salt, the structure may show the parent alone.

Assays:
Assay type in all cases: cell-based
Conditions in all cases: screening for activators, at least three concentrations of each drug
Zebrafish VDR = biological target: T1, Zebrafish VDR (Danio rerio, UniProt Q9PTN2); assay: luciferase reporter transactivation assay in HepG2-NTCP cells, GAL4/zfVDR LBD chimera with tk-UAS-Luc
T1 sequence (Q9PTN2 121-453): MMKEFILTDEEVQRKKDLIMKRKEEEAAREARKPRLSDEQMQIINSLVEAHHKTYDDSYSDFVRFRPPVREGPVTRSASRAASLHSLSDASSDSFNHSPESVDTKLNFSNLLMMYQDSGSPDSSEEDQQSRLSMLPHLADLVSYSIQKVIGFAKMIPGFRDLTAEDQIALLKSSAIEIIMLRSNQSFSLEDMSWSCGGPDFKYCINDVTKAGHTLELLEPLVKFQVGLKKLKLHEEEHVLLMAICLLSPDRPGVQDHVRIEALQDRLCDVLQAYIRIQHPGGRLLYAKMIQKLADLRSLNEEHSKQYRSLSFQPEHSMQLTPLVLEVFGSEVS

Xenopus laevis VDR = biological target: T2, Xenopus laevis VDR (Xenopus laevis, UniProt O13124); assay: luciferase reporter transactivation assay in HepG2-NTCP cells, GAL4/xlVDR LBD chimera with tk-UAS-Luc
T2 sequence (O13124 90-422): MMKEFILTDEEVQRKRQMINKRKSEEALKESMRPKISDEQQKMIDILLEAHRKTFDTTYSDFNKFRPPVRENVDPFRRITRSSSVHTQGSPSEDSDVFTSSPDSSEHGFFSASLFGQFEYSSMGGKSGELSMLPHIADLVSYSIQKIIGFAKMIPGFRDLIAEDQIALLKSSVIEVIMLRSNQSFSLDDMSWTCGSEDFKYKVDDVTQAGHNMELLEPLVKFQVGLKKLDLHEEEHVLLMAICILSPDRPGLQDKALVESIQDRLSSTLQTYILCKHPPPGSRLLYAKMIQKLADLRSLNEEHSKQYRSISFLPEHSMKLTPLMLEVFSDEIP

Sea lamprey VDR = biological target: T3, Sea lamprey VDR (Petromyzon marinus, UniProt Q7ZZY9)
T3 sequence (Q7ZZY9 92-406): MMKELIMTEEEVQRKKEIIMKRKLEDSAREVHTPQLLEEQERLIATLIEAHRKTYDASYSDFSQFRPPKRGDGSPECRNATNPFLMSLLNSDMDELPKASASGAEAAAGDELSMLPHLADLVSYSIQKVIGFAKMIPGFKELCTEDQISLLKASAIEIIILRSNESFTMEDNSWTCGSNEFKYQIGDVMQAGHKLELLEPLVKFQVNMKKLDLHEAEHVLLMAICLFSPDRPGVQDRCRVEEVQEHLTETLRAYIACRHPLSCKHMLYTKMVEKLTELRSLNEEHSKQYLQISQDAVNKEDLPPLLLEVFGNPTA

Row | Structure (SMILES) | Effect on zebrafish VDR (Zebrafish VDR) | Effect on Xenopus laevis VDR (Xenopus laevis VDR) | Effect on sea lamprey VDR (Sea lamprey VDR)
1 | C[C@]12CC[C@@H](O)C[C@H]1CC[C@@H]1[C@@H]2C(=O)C[C@@]2(C)[C@H]1CC[C@]2(O)[C@@H](O)CO [Cortolone] | No effect | No effect | No effect
2 | CC(C)=CCC[C@@H](C)[C@H]1CC[C@@]2(C)[C@@H]3CC[C@H]4C(C)(C)[C@@H](O)CC[C@@]45C[C@@]35CC[C@]12C [Cycloartenol] | No effect | No effect | No effect
3 | C[C@]12CC[C@H](OS(=O)(=O)O)CC1=CC[C@@H]1[C@@H]2CC[C@]2(C)C(=O)CC[C@@H]12 [DHEA sulfate] | No effect | No effect | No effect
4 | C[C@]12CC[C@H](O)CC1=CC[C@@H]1[C@@H]2CC[C@]2(C)C(=O)CC[C@@H]12 [DHEA] | No effect | No effect | No effect
5 | C[C@H](CCC(=O)O)[C@H]1CC[C@H]2[C@@H]3CC[C@@H]4C[C@H](O)CC[C@]4(C)[C@H]3C[C@H](O)[C@]12C [Deoxycholic acid] | No effect | No effect | No effect
6 | C[C@]12CCC(=O)C[C@@H]1CC[C@@H]1[C@@H]2CC[C@]2(C)[C@@H](O)CC[C@@H]12 [Dihydrotestosterone] | No effect | No effect | No effect
7 | CC/C=C\C/C=C\C/C=C\C/C=C\C/C=C\C/C=C\CCC(=O)O [Docosa-4Z,7Z,10Z,13Z,16Z,19Z-hexanoic acid] | No effect | No effect | No effect
8 | C[C@H]([C@H](O)CCC(C)(C)O)[C@H]1CC[C@@]2(O)C3=CC(=O)[C@@H]4C[C@@H](O)[C@@H](O)C[C@]4(C)[C@H]3CC[C@]12C [Ecdysone] | No effect | No effect | No effect
9 | C[C@]12CC[C@@H]3c4ccc(O)cc4CC[C@H]3[C@@H]1[C@@H](O)[C@@H](O)[C@@H]2O [Estetrol] | No effect | No effect | No effect
10 | C[C@]12CC[C@@H]3c4ccc(O[C@@H]5O[C@H](C(=O)O)[C@@H](O)[C@H](O)[C@H]5O)cc4CC[C@H]3[C@@H]1CC[C@@H]2O [Estradiol 3-glucuronide] | No effect | No effect | No effect
11 | C[C@]12CC[C@@H]3c4ccc(OS(=O)(=O)O)cc4CC[C@H]3[C@@H]1CC[C@@H]2O [Estradiol 3-sulfate] | No effect | No effect | No effect
12 | C[C@]12CC[C@@H]3c4ccc(O)cc4CC[C@H]3[C@@H]1C[C@@H](O)[C@@H]2O [Estriol] | No effect | No effect | No effect
13 | C[C@]12CC[C@@H]3c4ccc(OS(=O)(=O)O)cc4CC[C@H]3[C@@H]1CCC2=O [Estrone 3-sulfate] | No effect | No effect | No effect
14 | C#C[C@]1(O)CC[C@H]2[C@@H]3CCc4cc(O)ccc4[C@H]3CC[C@@]21C [Ethinyl estradiol] | No effect | No effect | No effect
15 | C[C@]12CC[C@@H](O)C[C@H]1CC[C@@H]1[C@@H]2CC[C@]2(C)C(=O)CC[C@@H]12 [Etiocholanolone] | No effect | No effect | No effect
16 | CC(C)=CCC/C(C)=C/CC/C(C)=C/CO [Farnesol] | No effect | No effect | No effect
17 | CC(C)=CCC/C(C)=C/CC/C(C)=C/CSCC(=O)O [Farnesylthioacetic acid] | No effect | No effect | No effect
18 | CC(C(=O)O)c1ccc(-c2ccccc2)c(F)c1 (stereo not drawn) [Flurbiprofen] | No effect | No effect | No effect
19 | O=C(O)Cc1cccc(OCCCN(Cc2cccc(C(F)(F)F)c2Cl)CC(c2ccccc2)c2ccccc2)c1 [GW3965] | None of these three VDRs were activated; also recorded: No effect | None of these three VDRs were activated; also recorded: No effect | None of these three VDRs were activated; also recorded: No effect
20 | CC(C)c1onc(-c2c(Cl)cccc2Cl)c1COc1ccc(/C=C/c2cccc(C(=O)O)c2)c(Cl)c1 [GW4064] | None of these three VDRs were activated | None of these three VDRs were activated | None of these three VDRs were activated
21 | CC(C)(Sc1ccc(CCN(CCCCC2CCCCC2)C(=O)NC2CCCCC2)cc1)C(=O)O [GW 7647] | No effect | No effect | No effect
22 | O=C(Nc1ccccc1)c1cc([N+](=O)[O-])ccc1Cl [GW 9662] | No effect | No effect | No effect
23 | Cc1ccc(C)c(OCCCC(C)(C)C(=O)O)c1 [Gemfibrozil] | No effect | No effect | No effect
24 | CC(C)=CCC/C(C)=C/CC/C(C)=C/CC/C(C)=C/CO [Geranygeraniol] | No effect | No effect | No effect
25 | CC(CCC(=O)NCC(=O)O)C1CCC2C3C(O)CC4CC(O)CCC4(C)C3CCC12C (stereo not drawn) [Glycochenodeoxycholic acid] | No effect | No effect | No effect
26 | C[C@H](CCC(=O)NCC(=O)O)[C@H]1CC[C@H]2[C@@H]3[C@H](O)C[C@@H]4C[C@H](O)CC[C@]4(C)[C@H]3C[C@H](O)[C@]12C.O [Glycocholic acid hydrate] | No effect | No effect | No effect
27 | C[C@H](CCC(=O)NCC(=O)O)[C@H]1CC[C@H]2[C@@H]3CC[C@@H]4C[C@H](O)CC[C@]4(C)[C@H]3C[C@H](O)[C@]12C.O [Glycodeoxycholic acid monohydrate] | No effect | No effect | No effect
28 | CC(CCC(=O)NCC(=O)O)C1CCC2C3CCC4CC(O)CCC4(C)C3CC(O)C12C (stereo not drawn) [Glycodeoxycholic acid] | No effect | No effect | No effect
29 | C[C@H](CCC(=O)NCC(=O)O)[C@H]1CC[C@H]2[C@@H]3CC[C@@H]4C[C@H](OS(=O)(=O)O)CC[C@]4(C)[C@H]3CC[C@]12C [Glycolithocholic acid 3-sulfate] | No effect | No effect | No effect
